Read-outs that look alike come from different tables or passages of the source.
Columns and labels:
[1] = test system: promastigote forms of Leishmania amazonensis (WHOM/BR/75/JOSEFA strain); assay: Antiproliferative assay (XTT), promastigote forms, 72 h; type: cell-based; details: for IC50: Leishmania amazonensis, 72 h, read-out: L. amazonensis IC50; for SIL-F, selectivity index (Fibroblast CC50/L. amazonensis IC50): fibroblast vs promastigote; for SIL-M, selectivity index (Macrophages CC50/L. amazonensis IC50): macrophages vs promastigote
Experimental: (§1) The antiproliferative activity was determined in promastigote forms of Leishmania amazonensis (WHOM/BR/75/JOSEFA strain) and epimastigote forms of Trypanosoma cruzi (Y strain). The promastigote forms of L. amazonensis were cultured in Warren medium (brain heart infusion, hemin, and folic acid; pH 7.4) supplemented with 10 % fetal bovine serum (FBS) at 25 °C. The epimastigote forms of T.cruzi were cultured in LIT medium (liver infusion tryptose; hemin, and folic acid; pH 7.4) supplemented with 10 % FBS at 28 °C. Cytotoxicity in mammalian cells was determined in fibroblast line (L929) and macrophages (J774 A1). Fibroblasts were cultured in DMEM medium (pH 7.2) supplemented with 10 % FBS at 37 °C in a 5 % CO2 atmosphere. Macrophages were cultured in RPMI‐1640 (pH 7.2) medium supplemented with 10 % FBS at 37 °C in a 5 % CO2 atmosphere.
(§2) Stock solutions of the compounds were prepared in DMSO and then diluted in the respective medium.
(§3) Promastigote forms (1×10^6 parasites.mL^−1) were cultured in 96‐well plates in the presence and absence of different concentrations of compounds diluted in Warren medium supplemented with 10 % FBS and incubated for 72 h. The epimastigote forms (1×10^6 parasites.mL^−1) were cultured in 96‐well plates in the presence and absence of different concentrations of compounds diluted in LIT medium supplemented with 10 % FBS and incubated for 96 h. After treatment, the parasites were incubated with a solution of 2,3‐bis(2‐methoxy‐4‐nitro‐5‐sulfophenyl)‐2H‐tetrazolium‐5‐carboxanilide (XTT; 0.5 mg.mL^−1) and phenazine methanesulfonate activator (PMS; 0.06 mg.mL^−1) in PBS for 4 h. Then, the absorbance was read in a microplate reader (Bio Tek‐Power Wave XS) at 450 nm.[20] The percentage of viable parasites was calculated in relation to the control in order to determine the concentration that inhibits 50 % of the protozoa (IC50). The control groups of each experiment received the same experimental conditions as the treated groups (cell concentration used, temperature, and incubation time).

[2] = test system: epimastigote forms of Trypanosoma cruzi (Y strain); assay: Antiproliferative assay (XTT), epimastigote forms, 96 h; type: cell-based; details: for IC50: Trypanosoma cruzi, 96 h, read-out: T. cruzi IC50; for SIT-F, selectivity index (Fibroblast CC50/T. cruzi IC50): fibroblast vs epimastigote; for SIT-M, selectivity index (Macrophages CC50/T. cruzi IC50): macrophages vs epimastigote
Experimental: as §1, §2, §3

[3] = Cytotoxicity assay in mammalian cells (MTT), fibroblasts, 72 h; type: cell-based; details: mouse, pH 7.2, 50 % inhibition of fibroblast growth, 72 h, MTT
Experimental: as §1, §2
(§4) Fibroblast cell (2.5×10^5 cells.mL^−1) suspensions were prepared in DMEM medium supplemented with 10 % FBS and added to 96‐well plates. Then, the plates were incubated at 37 °C in a CO2 atmosphere for 24 h to obtain confluent cell growth. After incubation, cells were treated with different concentrations of compounds diluted in DMEM for 72 h or left untreated. Macrophage (5×10^5 cells.mL^−1) suspensions were prepared in RPMI‐1640 medium supplemented with 10 % FBS and added to 96‐well plates. Then, the plates were incubated at 37 °C in a CO2 atmosphere for 24 h to obtain confluent cell growth. After incubation, cells were treated with different concentrations of compounds diluted in RPMI‐1640 for 48 h or left untreated. After treatment, the medium was removed, and cells were incubated with MTT (2 mg.mL^−1) for 4 h. Then, DMSO was added for solubilization of the formazan and analyzed with a reading microplate reader (BIO‐TEK PowerWave XS spectrophotometer) at […].[20] The percentage of viable cells was calculated in relation to the untreated control group to determine the cytotoxic concentration in 50 % of the cells (CC50). The control groups of each experiment received the same experimental conditions as the treated groups (cell concentration used, temperature, CO2, and incubation time).

[4] = Cytotoxicity assay in mammalian cells (MTT), macrophages, 48 h; type: cell-based; details: mouse, pH 7.2, 50 % inhibition of macrophages growth, 48 h, MTT
Experimental: as §1, §2, §4

Row | SMILES | IC50 ([1]; promastigote form, XTT) [µM] | SIL-F, selectivity index (Fibroblast CC50/L. amazonensis IC50) [1] | SIL-M, selectivity index (Macrophages CC50/L. amazonensis IC50) [1] | IC50 ([2]; epimastigote form, XTT) [µM] | SIT-F, selectivity index (Fibroblast CC50/T. cruzi IC50) [2] | SIT-M, selectivity index (Macrophages CC50/T. cruzi IC50) [2] | CC50 at 72 h ([3]; L929 fibroblast cells) [µM] | CC50 at 48 h ([4]; J774 A1 macrophages) [µM] | melting point [°C] | IC50 [1] [µM] | IC50 [2] [µM] | CC50 at 72 h [3] [µM] | CC50 at 48 h [4] [µM] | Selectivity index (SI), overall ([1]; span over both cell lines (fibroblast, macrophages) and both parasites (L. amazonensis, T. cruzi))
1 | CCOC(=O)c1noc(-c2ccc(Cl)cc2)c1CNc1ccccc1 [2 da] | 29.9 ± 2.1 | 5.28 | 5.17 | 32.9 ± 3.7 | 4.80 | 4.70 | 158 ± 7.7 | 155 ± 3 | 172.9 to 173.4 | – | – | – | – | –
2 | CCOC(=O)c1noc(-c2ccc(Cl)cc2)c1CNc1ccc(Cl)cc1 [2 db] | 21.6 ± 2.2 | 4.61 | 4.07 | 22.4 ± 2.6 | 4.44 | 3.92 | 99.5 ± 5.7 | 87.9 ± 4.6 | 173.3 to 175.4 | – | – | – | – | –
3 | NNC(=O)c1noc(-c2ccc([N+](=O)[O-])cc2)c1CNc1ccccc1 [3 aa, 3‐Carbohydrazide‐4‐(phenyl)aminomethyl‐5‐(4‐nitrophenyl)isoxazole] | 42.1 ± 1.3 | 4.71 | 3.39 | 39.8 ± 3.6 | 4.98 | 3.59 | 198 ± 9.5 | 142.8 ± 0.8 | 189 to 190.4 | – | – | – | – | –
4 | NNC(=O)c1noc(-c2ccc([N+](=O)[O-])cc2)c1CNc1ccc(Cl)cc1 [3 ab] | 15.7 ± 0.4 | 6.26 | 5.84 | 12.1 ± 0.9 | 8.12 | 7.58 | 98.3 ± 4.1 | 91.7 ± 3.8 | 174.1 to 176.8 | – | – | – | – | –
5 | COc1ccc(NCc2c(C(=O)NN)noc2-c2ccc([N+](=O)[O-])cc2)cc1 [3 ac] | 76.7 ± 0.6 | 6.51 | 5.25 | 82.9 ± 3.4 | 6.02 | 4.86 | 499 ± 2.7 | 403 ± 11.5 | 144.2 to 146.8 | – | – | – | – | –
6 | NNC(=O)c1noc(-c2ccccc2)c1CNc1ccccc1 [3 ba] | 34.9 ± 2.9 | 5.41 | 3.16 | 39.5 ± 5.6 | 4.78 | 2.79 | 189 ± 9 | 110 ± 5.6 | 151.3 to 152.4 | – | – | – | – | –
7 | NNC(=O)c1noc(-c2ccccc2)c1CNc1ccc(Cl)cc1 [3 bb] | – | 8.07 | 6.48 | – | 7.38 | 5.93 | – | – | 190.6 to 191.6 | 35.7 ± 6 | 39 ± 7.1 | 288 ± 9.9 | 231 ± 8.1 | –
8 | COc1ccc(NCc2c(C(=O)NN)noc2-c2ccccc2)cc1 [3 bc] | 12.4 ± 1.7 | 15.35 | 14.97 | 15 ± 0.8 | 12.69 | 12.38 | 190 ± 3.7 | 186 ± 6.1 | 132.2 to 135.4 | – | – | – | – | greater than 14

Source: PMC8485799, “Synthesis and Antiprotozoal Profile of 3,4,5‐Trisubstituted Isoxazoles” (ChemistryOpen, 2021)
